In brackets after ≈: the same amount, converted by molar mass. Blank lines part the entries; values can stand above or below the compound they belong to.
Experiments:
Pseudomonas aeruginosa [1] = assay: Antibacterial activity against Pseudomonas aeruginosa incubated for 18 hrs by CLSI based broth microdilution method; assay type: functional
[2] = Inhibition of Staphylococcus aureus MraY using UDPMurNAc-dansylpentapeptide as substrate incubated for 3 hrs by fluorescence method
Pseudomonas aeruginosa [3] = assay: Antibacterial activity against multidrug-resistant Pseudomonas aeruginosa MDRP62 incubated for 18 hrs by CLSI based broth microdilution method; assay type: functional
Pseudomonas aeruginosa [4] = assay: Antibacterial activity against Pseudomonas aeruginosa serotype I IID1010 incubated for 18 hrs by CLSI based broth microdilution method; assay type: functional
Pseudomonas aeruginosa [5] = assay: Antibacterial activity against Pseudomonas aeruginosa isolate 2867 incubated for 18 hrs by CLSI based broth microdilution method; assay type: functional
Pseudomonas aeruginosa [6] = assay: Antibacterial activity against Pseudomonas aeruginosa serotype B IID5004 incubated for 18 hrs by CLSI based broth microdilution method; assay type: functional
Pseudomonas aeruginosa [7] = assay: Antibacterial activity against Pseudomonas aeruginosa serotype B IID1007 incubated for 18 hrs by CLSI based broth microdilution method; assay type: functional
Pseudomonas aeruginosa [8] = assay: Antibacterial activity against Pseudomonas aeruginosa serotype M IID1015 incubated for 18 hrs by CLSI based broth microdilution method; assay type: functional
Pseudomonas aeruginosa [9] = assay: Resistance index, ratio of MIC for Pseudomonas aeruginosa PAO1 incubated overnight to MIC for Pseudomonas aeruginosa PAO1 incubated for 18 hrs; assay type: functional
Pseudomonas aeruginosa [10] = assay: Antibacterial activity against Pseudomonas aeruginosa PAO1 incubated for 18 hrs by CLSI based broth microdilution method; assay type: functional
Pseudomonas aeruginosa [11] = assay: Antibacterial activity against Pseudomonas aeruginosa serotype K IID1012 incubated for 18 hrs by CLSI based broth microdilution method; assay type: functional
[12] = Substrate activity at NppA1A2BCD assessed as antibacterial activity against mureidomycin-resistant Pseudomonas aeruginosa PAO1 harboring NppA1A2BCD mutant measured at day 30 post mureidomycin-challenge; assay type: ADME
Pseudomonas aeruginosa [13] = assay: Antibacterial activity against Pseudomonas aeruginosa serotype D IID1004 incubated for 18 hrs by CLSI based broth microdilution method; assay type: functional
HepG2 = assay: Cytotoxicity against human HepG2 cells after 24 hrs by CCK-8 assay; assay type: cell-based; settings: HepG2, 24 h
Pseudomonas aeruginosa [14] = assay: Antibacterial activity against Pseudomonas aeruginosa serotype A IID1001 incubated for 18 hrs by CLSI based broth microdilution method; assay type: functional
Pseudomonas aeruginosa [15] = assay: Antibacterial activity against Pseudomonas aeruginosa isolate 2931 incubated for 18 hrs by CLSI based broth microdilution method; assay type: functional
Pseudomonas aeruginosa [16] = assay: Antibacterial activity against Pseudomonas aeruginosa isolate 1485 incubated for 18 hrs by CLSI based broth microdilution method; assay type: functional
Pseudomonas aeruginosa [17] = assay: Antibacterial activity against Pseudomonas aeruginosa serotype E IID1130 incubated for 18 hrs by CLSI based broth microdilution method; assay type: functional
Pseudomonas aeruginosa [18] = assay: Antibacterial activity against Pseudomonas aeruginosa isolate 9728b incubated for 18 hrs by CLSI based broth microdilution method; assay type: functional
Pseudomonas aeruginosa [19] = assay: Antibacterial activity against Pseudomonas aeruginosa serotype J IID1011 incubated for 18 hrs by CLSI based broth microdilution method; assay type: functional
[20] = Substrate activity at NppA1A2BCD assessed as antibacterial activity against mureidomycin-resistant Pseudomonas aeruginosa PAO1 harboring NppA1A2BCD mutant measured at day 1 post mureidomycin-challenge; assay type: ADME
Pseudomonas aeruginosa [21] = assay: Antibacterial activity against Pseudomonas aeruginosa serotype L IID5141 incubated for 18 hrs by CLSI based broth microdilution method; assay type: functional
Pseudomonas aeruginosa [22] = assay: Antibacterial activity against Pseudomonas aeruginosa serotype B IID1013 incubated for 18 hrs by CLSI based broth microdilution method; assay type: functional
Pseudomonas aeruginosa [23] = assay: Antibacterial activity against Pseudomonas aeruginosa serotype C IID1021 incubated for 18 hrs by CLSI based broth microdilution method; assay type: functional
[24] = Substrate activity at NppA1A2BCD assessed as antibacterial activity against mureidomycin-resistant Pseudomonas aeruginosa PAO1 harboring NppA1A2BCD mutant measured at day 2 post mureidomycin-challenge; assay type: ADME
[25] = Substrate activity at NppA1A2BCD assessed as antibacterial activity against Pseudomonas aeruginosa PAO1 PW4182; assay type: ADME; settings: pseudomonas aeruginosa pao1, 720 h; time 30 day
Pseudomonas aeruginosa [26] = assay: Antibacterial activity against Pseudomonas aeruginosa serotype H IID1009 incubated for 18 hrs by CLSI based broth microdilution method; assay type: functional
Pseudomonas aeruginosa [27] = assay: Antibacterial activity against Pseudomonas aeruginosa ATCC 27853 incubated for 18 hrs by CLSI based broth microdilution method; assay type: functional
Pseudomonas aeruginosa [28] = assay: Antibacterial activity against Pseudomonas aeruginosa serotype G IID1020 incubated for 18 hrs by CLSI based broth microdilution method; assay type: functional
Pseudomonas aeruginosa [29] = assay: Antibacterial activity against Pseudomonas aeruginosa serotype F IID1006 incubated for 18 hrs by CLSI based broth microdilution method; assay type: functional
Pseudomonas aeruginosa [30] = assay: Antibacterial activity against Pseudomonas aeruginosa isolate 1483 incubated for 18 hrs by CLSI based broth microdilution method; assay type: functional
[31] = Substrate activity at NppA1A2BCD assessed as antibacterial activity against Pseudomonas aeruginosa PAO1 PW4181; assay type: ADME; settings: pseudomonas aeruginosa pao1, 720 h; time 30 day
Pseudomonas aeruginosa [32] = assay: Antibacterial activity against Pseudomonas aeruginosa serotype M IID5018 incubated for 18 hrs by CLSI based broth microdilution method; assay type: functional
Pseudomonas aeruginosa [33] = assay: Antibacterial activity against Pseudomonas aeruginosa serotype B IID1002 incubated for 18 hrs by CLSI based broth microdilution method; assay type: functional

MIC (Pseudomonas aeruginosa [1]): 32 µg/mL (≈ 36.7 µM)
IC50 [2]: 4.7 nM
SMILES: C[C@@H]([C@H](NC(=O)[C@H](CC[S+](C)[O-])NC(=O)N[C@@H](Cc1cccc(O)c1)C(=O)O)C(=O)N/C=C1\O[C@@H](n2ccc(=O)[nH]c2=O)[C@H](O)[C@@H]1O)N(C)C(=O)[C@@H](N)Cc1cccc(O)c1 (stereo not given in full)

SMILES: CSCC[C@H](NC(=O)N[C@@H](Cc1cccc(O)c1)C(=O)O)C(=O)N[C@H](C(=O)N/C=C1\O[C@@H](n2ccc(=O)[nH]c2=O)[C@H](O)[C@@H]1O)[C@H](C)N(C)C(=O)[C@@H](N)Cc1cccc(O)c1
MIC (Pseudomonas aeruginosa [3]): 16 µg/mL (≈ 18.7 µM)
MIC (Pseudomonas aeruginosa [4]): 32 µg/mL (≈ 37.3 µM)
MIC (Pseudomonas aeruginosa [5]): 8 µg/mL (≈ 9.34 µM)
MIC (Pseudomonas aeruginosa [6]): 8 µg/mL (≈ 9.34 µM)
MIC (Pseudomonas aeruginosa [7]): 32 µg/mL (≈ 37.3 µM)
MIC (Pseudomonas aeruginosa [8]): 16 µg/mL (≈ 18.7 µM)
Ratio (Pseudomonas aeruginosa [9]): 8
MIC (Pseudomonas aeruginosa [10]): 4 µg/mL (≈ 4.67 µM)
MIC (Pseudomonas aeruginosa [11]): 16 µg/mL (≈ 18.7 µM)
MIC [12]: > 64 µg/mL
MIC (Pseudomonas aeruginosa [13]): 8 µg/mL (≈ 9.34 µM)
IC50 (HepG2): > 100000 nM
MIC (Pseudomonas aeruginosa [14]): 64 µg/mL (≈ 74.7 µM)
MIC (Pseudomonas aeruginosa [15]): 16 µg/mL (≈ 18.7 µM)
MIC (Pseudomonas aeruginosa [16]): 4 µg/mL (≈ 4.67 µM)
MIC (Pseudomonas aeruginosa [17]): 16 µg/mL (≈ 18.7 µM)
MIC (Pseudomonas aeruginosa [18]): 32 µg/mL (≈ 37.3 µM)
MIC (Pseudomonas aeruginosa [19]): 16 µg/mL (≈ 18.7 µM)
MIC [20]: > 64 µg/mL
MIC (Pseudomonas aeruginosa [21]): 4 µg/mL (≈ 4.67 µM)
MIC (Pseudomonas aeruginosa [22]): > 128 µg/mL
MIC (Pseudomonas aeruginosa [23]): 8 µg/mL (≈ 9.34 µM)
MIC [24]: > 64 µg/mL
MIC [25]: > 128 µg/mL
MIC (Pseudomonas aeruginosa [26]): 8 µg/mL (≈ 9.34 µM)
MIC (Pseudomonas aeruginosa [27]): 4 µg/mL (≈ 4.67 µM)
MIC (Pseudomonas aeruginosa [28]): 8 µg/mL (≈ 9.34 µM)
MIC (Pseudomonas aeruginosa [29]): > 128 µg/mL
IC50 [2]: 1.3 nM
MIC (Pseudomonas aeruginosa [30]): 8 µg/mL (≈ 9.34 µM)
MIC [31]: > 128 µg/mL
MIC (Pseudomonas aeruginosa [32]): > 128 µg/mL
MIC (Pseudomonas aeruginosa [33]): 16 µg/mL (≈ 18.7 µM)
